Laboratory results as given in patent US20240390408A1, “METHOD OF TREATING HEPATITIS C VIRUS IN PATIENTS” (Altesa BioSciences, Inc., priority 2023, published 2024).
Read-outs that look alike come from different tables or passages of the source.

What was measured:
[1] = Tissue concentrations of Formula I and its metabolites in Göttingen pigs after a single oral or intravenous dose (LC-MS/MS); format: in vivo; settings: for concentration at 2 h / concentration at 3 h: both sexes, Göttingen, pig (minipig), in vivo; for concentration at 2 h: 25 mg/kg; for concentration at 3 h: 125 mg/kg
Description: Tissue samples were collected at 3, 12, and 24 hours post-dose (hpd) for the oral dose and 2 and 12 hpd for the intravenous dose, snap-frozen in liquid nitrogen, and stored at −60 to −90° C. until shipment on dry ice for analysis by LC-MS/MS.
Animals were weighed the day prior to dosing to determine the dosing volume.
The compound of Formula I was dissolved in a PEG 400/DI water (60%/40% v/v) vehicle for oral dosing. For IV dosing the compound of Formula I was dissolved in a PEG 400/Cremophor RH 40/Saline (40%/10%/50% v/v) vehicle and passed through a sterile filter. […] Animals were euthanized by euthanasia solution administration under sedation, if necessary (e.g., acepromazine and or/Telazol®), followed by a Testing Facility SOP approved method to ensure death (e.g., exsanguination). Tissues were collected from two animals per sex per timepoint. Tissue samples, including the brain, heart, kidney, liver, lung, spleen, pancreas, bone marrow, duodenum, jejunum, and colon, were collected in duplicate (approximately 50±20 mg each) and placed into two separate reinforced homogenization tubes per organ (one tissue sample per tube). The exact weight (in milligrams) of each sample was recorded. Tissues samples were flash frozen in liquid nitrogen and stored at −60 to −90° C. until shipment on dry ice for analysis by LC-MS/MS.
Mobile phase A consisted of 50 mM ammonium bicarbonate buffer in HPLC grade water pH 9.8 and mobile phase B consisted of pure acetonitrile. […] Mass spectrometry analysis was performed on a QTrap 7500 Mass Spectrometer (Sciex, Framingham, MA, USA) using negative mode electrospray ionization (ESI) in multiple reaction monitoring (MRM) mode. Data analysis was performed using SCIEX OS Software (Sciex, Framingham, MA, USA).
Tissue samples were collected at 3, 12, and 24 hours post-dose for the oral dose and 2 and 12 hour post-dose for the intravenous dose.

[2] = Stability in minipig plasma; format: in vitro ADME
[3] = liver, single oral dose of Formula I 125 mg/kg, 12 hpd
[4] = liver, single oral dose of Formula I 125 mg/kg, 24 hpd

CC(C)OC(=O)[C@H](C)N[P@](=O)(OC[C@H]1O[C@@H](n2ccc(=O)[nH]c2=S)C(C)(O)C1O)Oc1ccccc1 (some centres unmarked) [Formula I]
Quantity detectable in organs ([1]; all organs, 2-3 hours after IV or PO dosing): ~0.1 µM
concentration at 2 h ([1]; kidney, single intravenous bolus of Formula I 25 mg/kg, 2 hpd, read-out: Tissue concentration, kidney): 85 ± 93.1 ng/g
concentration at 2 h ([1]; liver, single intravenous bolus of Formula I 25 mg/kg, 2 hpd, read-out: Tissue concentration, liver): 7.03 ± 8.24 ng/g
concentration at 2 h ([1]; lung, single intravenous bolus of Formula I 25 mg/kg, 2 hpd, read-out: Tissue concentration, lung): 51.8 ± 29.1 ng/g
concentration at 2 h ([1]; spleen, single intravenous bolus of Formula I 25 mg/kg, 2 hpd, read-out: Tissue concentration, spleen): 63.9 ± 29.8 ng/g
concentration at 3 h ([1]; brain, single oral dose of Formula I 125 mg/kg, 3 hpd, read-out: Tissue concentration, brain): 31.5 ± 63 ng/g
concentration at 3 h ([1]; heart, single oral dose of Formula I 125 mg/kg, 3 hpd, read-out: Tissue concentration, heart): 117 ± 105 ng/g
concentration at 3 h ([1]; liver, single oral dose of Formula I 125 mg/kg, 3 hpd, read-out: Tissue concentration in Göttingen pig liver (Table 7)): 496 ± 663 nM
concentration at 3 h ([1]; liver, single oral dose of Formula I 125 mg/kg, 3 hpd, read-out: Tissue concentration, liver): 270 ± 361 ng/g
concentration at 3 h ([1]; lung, single oral dose of Formula I 125 mg/kg, 3 hpd, read-out: Tissue concentration, lung): 38.6 ± 46.5 ng/g
concentration at 3 h ([1]; spleen, single oral dose of Formula I 125 mg/kg, 3 hpd, read-out: Tissue concentration, spleen): 88.4 ± 60.3 ng/g
Tissue concentration, brain ([1]; brain, single intravenous bolus of Formula I 25 mg/kg, 2 hpd): BQL
Tissue concentration, brain ([1]; brain, single intravenous bolus of Formula I 25 mg/kg, 12 hpd): BQL
Tissue concentration, brain ([1]; brain, single oral dose of Formula I 125 mg/kg, 3 hpd): 31.5 ± 63.0 ng/g
Tissue concentration, brain ([1]; brain, single oral dose of Formula I 125 mg/kg, 12 hpd): BQL
Tissue concentration, brain ([1]; brain, single oral dose of Formula I 125 mg/kg, 24 hpd): BQL
Tissue concentration, heart ([1]; heart, single intravenous bolus of Formula I 25 mg/kg, 2 hpd): 112 ± 69.0 ng/g
Tissue concentration, heart ([1]; heart, single intravenous bolus of Formula I 25 mg/kg, 12 hpd): 2.95 ± 5.90 ng/g
Tissue concentration, heart ([1]; heart, single oral dose of Formula I 125 mg/kg, 12 hpd): BQL
Tissue concentration, heart ([1]; heart, single oral dose of Formula I 125 mg/kg, 24 hpd): BQL
Tissue concentration, kidney ([1]; kidney, single intravenous bolus of Formula I 25 mg/kg, 12 hpd): BQL
Tissue concentration, kidney ([1]; kidney, single oral dose of Formula I 125 mg/kg, 3 hpd): BQL
Tissue concentration, kidney ([1]; kidney, single oral dose of Formula I 125 mg/kg, 12 hpd): BQL
Tissue concentration, kidney ([1]; kidney, single oral dose of Formula I 125 mg/kg, 24 hpd): BQL
Tissue concentration, liver ([1]; liver, single intravenous bolus of Formula I 25 mg/kg, 2 hpd): 7.03 ± 8.24 ng/g
Tissue concentration, liver ([1]; liver, single intravenous bolus of Formula I 25 mg/kg, 12 hpd): BQL
Tissue concentration, liver ([1]; liver, single oral dose of Formula I 125 mg/kg, 3 hpd): 270 ± 361 ng/g
Tissue concentration in Göttingen pig liver (Table 7) [1, 3]: BQL
Tissue concentration, liver [1, 3]: BQL
Tissue concentration in Göttingen pig liver (Table 7) [1, 4]: BQL
Tissue concentration, liver [1, 4]: BQL
Tissue concentration, lung ([1]; lung, single intravenous bolus of Formula I 25 mg/kg, 12 hpd): BQL
Tissue concentration, lung ([1]; lung, single oral dose of Formula I 125 mg/kg, 12 hpd): BQL
Tissue concentration, lung ([1]; lung, single oral dose of Formula I 125 mg/kg, 24 hpd): BQL
Tissue concentration, spleen ([1]; spleen, single intravenous bolus of Formula I 25 mg/kg, 12 hpd): BQL
Tissue concentration, spleen ([1]; spleen, single oral dose of Formula I 125 mg/kg, 12 hpd): BQL
Tissue concentration, spleen ([1]; spleen, single oral dose of Formula I 125 mg/kg, 24 hpd): BQL
Stability in minipig plasma [2]: good stability
